In paper PMC8911699, “Biological and Cheminformatics Studies of Newly Designed Triazole Based Derivatives as Potent Inhibitors against Mushroom Tyrosinase” (Molecules, 2022):
Entries after “also recorded” stand apart in the source; their conditions may differ.

Key:
mushroom tyrosinase [1] = biological target: T1, mushroom tyrosinase (Agaricus bisporus, UniProt C7FF04); assay: Mushroom tyrosinase inhibition assay (dopachrome technique, L-DOPA substrate); type: biochemical
Procedure: The inhibition of mushroom tyrosinase was determined by an alteration of the dopachrome technique using L-DOPA as a substrate. The mushroom tyrosinase (EC-232-653-4) was purchased from Sigma Korea. […] After the incubation time, the absorbance was measured at 475 nm using a microplate reader (SpectraMax ABS, Molecular Devices, California, CA, USA) and the inhibition percentage was calculated in relation to the control. […] Each concentration was scrutinized in three independent experiments. IC50 values were calculated by non-linear regression using GraphPad Prism 5.0. The % inhibition of tyrosinase was calculated as follows:Inhibition (%) = [(B−S)/B] ×100 where the B and S are the absorbances of the blank control and normal samples, respectively.
Target sequence in this assay (C7FF04 2-392): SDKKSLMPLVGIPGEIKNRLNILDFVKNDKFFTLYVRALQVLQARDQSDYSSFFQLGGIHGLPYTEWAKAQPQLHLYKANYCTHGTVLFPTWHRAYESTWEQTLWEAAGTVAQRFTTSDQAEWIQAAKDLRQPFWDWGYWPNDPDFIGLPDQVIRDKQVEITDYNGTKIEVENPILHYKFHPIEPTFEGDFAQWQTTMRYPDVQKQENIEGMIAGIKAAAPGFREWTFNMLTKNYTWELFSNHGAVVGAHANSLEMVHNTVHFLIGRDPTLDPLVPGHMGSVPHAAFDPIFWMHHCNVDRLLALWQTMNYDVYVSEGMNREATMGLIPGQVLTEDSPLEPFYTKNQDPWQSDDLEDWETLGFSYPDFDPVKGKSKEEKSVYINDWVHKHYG

mushroom tyrosinase [2] = biological target: T1, mushroom tyrosinase; assay: Inhibition kinetics (Lineweaver-Burk and secondary plots); type: biochemical; design: purchased Sigma Korea EC-232-653-4
Procedure: To understand the inhibitory mechanism of synthetic compounds on tyrosinase, an inhibition kinetic study was performed. […] The kinetic results of the enzyme expressed by the Lineweaver–Burk plot of 1/V versus 1/[S] for different inhibitor concentrations provided a series of straight lines. […] Additionally, the Km value increased with increasing the concentration of the inhibitor. […] The inhibition constant Ki was computed from Figure 4.
A series of experiments were performed to regulate the inhibition kinetics of 9h by following the already reported methods. The inhibitor concentrations for 9h were 0.00, 0.049, 0.098, and 0.196 µM. Substrate (L-DOPA) concentrations were between 0.0625 to 2 mM in all kinetic studies. Pre-incubation and measurement time were the same as discussed in the mushroom tyrosinase inhibition assay protocol. Maximal initial velocity was obtained from the initial linear portion of absorbance up to five minutes after the addition of enzyme at the 30 s interval. The inhibition type of the enzyme was assayed by Lineweaver–Burk plots of the inverse of velocities (1/V) versus the inverse of substrate concentration 1/[S] mM^−1.
Target sequence in this assay (C7FF04 1-392 limits assumed): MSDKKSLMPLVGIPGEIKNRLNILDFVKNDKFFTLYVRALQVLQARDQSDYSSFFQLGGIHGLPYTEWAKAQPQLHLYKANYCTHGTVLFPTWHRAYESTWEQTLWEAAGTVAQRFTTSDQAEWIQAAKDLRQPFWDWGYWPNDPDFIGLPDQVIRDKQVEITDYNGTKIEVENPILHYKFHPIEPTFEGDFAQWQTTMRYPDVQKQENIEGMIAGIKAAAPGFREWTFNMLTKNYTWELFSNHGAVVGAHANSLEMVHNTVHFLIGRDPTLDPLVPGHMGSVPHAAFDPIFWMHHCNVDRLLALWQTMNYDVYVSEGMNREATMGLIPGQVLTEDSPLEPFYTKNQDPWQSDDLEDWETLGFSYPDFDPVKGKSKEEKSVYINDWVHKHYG

O=C(CSc1nnc(-c2ccc(F)cc2)n1-c1ccc(F)cc1)Nc1ccc(Br)cc1 [9c, 2-(4,5-Bis(4-fluorophenyl)-4H-1,2,4-triazol-3-ylthio)-N-(4-bromophenyl) Acetamide]
response against mushroom tyrosinase inhibition (in words) (mushroom tyrosinase [1]): did not show any response; also recorded: ineffective counter response
melting point: 219.3 °C

O=C(CSc1nnc(-c2ccccc2F)n1-c1ccc(F)cc1)Nc1ccc(F)cc1 [9h, N-(4-fluorophenyl)-2-(5-(2-fluorophenyl)-4-(4-fluorophenyl)-4H-1,2,4-triazol-3-ylthio) Acetamide]
inhibition type (mushroom tyrosinase [2]; Lineweaver-Burk plot, Vmax same, Km increased): competitively inhibits
Ki (mushroom tyrosinase [2]; from plot of slope versus inhibitor concentration, L-DOPA 0.0625-2 mM, read-out: inhibition constant Ki): 0.018 µM

O=C(CSc1nnc(-c2ccccc2)n1-c1ccc(F)cc1)Nc1ccccc1 [9d, 2-(4-(4-Fluorophenyl)-5-phenyl-4H-1,2,4-triazol-3-ylthio)-N-phenylacetamide]
melting point: 206 °C

O=C(CSc1nnc(-c2ccc(F)cc2)n1-c1ccc(F)cc1)Nc1ccc(F)cc1 [9b, 2-(4,5-Bis(4-fluorophenyl)-4H-1,2,4-triazol-3-ylthio)-N-(4-fluorophenyl) Acetamide]
response against mushroom tyrosinase inhibition (in words) (mushroom tyrosinase [1]): did not show any response; also recorded: ineffective counter response
melting point: 195.3 °C

O=C(CSc1nnc(-c2ccccc2F)n1-c1ccc(F)cc1)Nc1ccc(Br)cc1 [9i, N-(4-bromophenyl)-2-(5-(2-fluorophenyl)-4-(4-fluorophenyl)-4H-1,2,4-triazol-3-ylthio) Acetamide]
response against mushroom tyrosinase inhibition (in words) (mushroom tyrosinase [1]): did not show any response
melting point: 248.9 °C

O=C(CSc1nnc(-c2ccccc2)n1-c1ccc(F)cc1)Nc1ccc(F)cc1 [9e, N-(4-fluorophenyl)-2-(4-(4-fluorophenyl)-5-phenyl-4H-1,2,4-triazol-3-ylthio) Acetamide]
melting point: 220.1 °C
